For experiment [1], the target named is T1, Thromboxane-A synthase (Homo sapiens, UniProt P24557).
T1 sequence (P24557 whole entry): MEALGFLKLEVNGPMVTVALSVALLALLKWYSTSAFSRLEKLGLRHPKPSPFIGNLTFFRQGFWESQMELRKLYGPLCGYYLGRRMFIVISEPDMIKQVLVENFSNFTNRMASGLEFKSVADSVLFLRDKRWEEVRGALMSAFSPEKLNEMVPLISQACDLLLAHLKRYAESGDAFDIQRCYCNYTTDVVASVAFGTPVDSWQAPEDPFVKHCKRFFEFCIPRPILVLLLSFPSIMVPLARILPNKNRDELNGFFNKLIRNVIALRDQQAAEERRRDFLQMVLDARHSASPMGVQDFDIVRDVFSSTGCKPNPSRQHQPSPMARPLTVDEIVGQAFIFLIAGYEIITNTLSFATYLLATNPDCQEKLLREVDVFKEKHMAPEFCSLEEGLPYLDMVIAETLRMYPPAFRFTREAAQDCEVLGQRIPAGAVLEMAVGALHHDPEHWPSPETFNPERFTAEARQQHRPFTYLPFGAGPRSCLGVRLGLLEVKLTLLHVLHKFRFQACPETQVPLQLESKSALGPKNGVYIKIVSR
Kind of experiment: In vitro inhibitory activity against human microsomal thromboxane synthase.

Experiment [2] is filed under the species Homo sapiens. Kind of experiment: Antagonistic activity against human platelet aggregation induced by U-46,619. Type of experiment: functional, organism-based. As to conditions: read-out: pA2 (converted).
Experiment [3] has as its system Rattus norvegicus. Briefly: Compound at an oral dose of 10 mg/Kg was tested ex vivo in rat after 5 hr against platelet aggregation induced by U-46,619. The format is functional, organism-based. The conditions noted are these: read-out: pA2 (converted).
Experiment [4] concerns Canis familiaris. Kind of experiment: Compound at an oral dose of 1 mg/Kg was tested ex vivo after 5 hr for inhibition of thromboxane synthase in dog. Type of experiment: functional. The conditions noted are these: Canis lupus familiaris.
The test system of experiment [5] is Canis familiaris. Kind of experiment: Compound at an oral dose of 1 mg/Kg was tested ex vivo after 1 hr for inhibition of thromboxane synthase in dog. The format is functional. The conditions noted are these: Canis lupus familiaris.
In experiment [6] the test system is Canis familiaris. Kind of experiment: Compound at an oral dose of 1 mg/Kg was tested ex vivo after 3 hr for inhibition of thromboxane synthase in dog. Type of experiment: functional. As to conditions: Canis lupus familiaris.
Experiment [7] has as its system Rattus norvegicus. Briefly: Compound at an oral dose of 10 mg/Kg was tested ex vivo after 1 hr for inhibition of thromboxane synthase in rat. The format is functional.
For experiment [8], the system named is Rattus norvegicus. Kind of experiment: Compound at an oral dose of 10 mg/Kg was tested ex vivo after 5 hr for inhibition of thromboxane synthase in rat. Type of experiment: functional.
The subject of experiment [9] is Rattus norvegicus. Briefly: Compound at an oral dose of 10 mg/Kg was tested ex vivo after 3 hr for inhibition of thromboxane synthase in rat. Type of experiment: functional.

On to `O=C(O)CC/C=C\C[C@@H]1CO[C@H](c2cncc(/C(=C\CCCCC(=O)O)c3ccccc3)c2)O[C@@H]1c1ccccc1O`, for which the IC50 (usually the point on the concentration scale where inhibition reaches its midpoint) in [1] was above 10000 nM. Besides, in experiment [2], the Kb was 25.1 nM.

Regarding `CC(C)(CCCCOc1ccc(/C(=C\CCCCC(=O)O)c2cccnc2)cc1)[C@H]1OC[C@@H](C/C=C\CCC(=O)O)[C@@H](c2ccccc2O)O1`, the IC50 in experiment [1] is 30 nM. Moreover, in [2], the Kb is 251 nM.

In turn, `O=C(O)CC/C=C\C[C@@H]1CO[C@H](c2ccc3cc(/C(=C\CCCCC(=O)O)c4cccnc4)ccc3c2)O[C@@H]1c1ccccc1O` registered an IC50 in [1] of 50 nM. Besides, the Kb in [2] was 251 nM.

In the case of `O=C(O)CC/C=C\C[C@@H]1CO[C@H](COc2cc(C(=O)O)ccc2OCCn2ccnc2)O[C@@H]1c1ccccc1O`, half-maximal inhibition in experiment [1] (IC50) was put at 1700 nM. Further, the Kb in experiment [2] is 3160 nM.

In experiment [1], `O=C(O)CC/C=C\C[C@@H]1CO[C@H](c2ccc(OCCCCCCOc3cc(C(=O)O)ccc3OCCn3ccnc3)cc2)O[C@@H]1c1ccccc1O` had an IC50 of 40 nM. For the same compound, in [2], the Kb is 158 nM.

For `O=C(O)CC/C=C\C[C@@H]1CO[C@H](c2ccc(OCCOc3ccc(/C(=C\CCCCC(=O)O)c4cccnc4)cc3)cc2)O[C@@H]1c1ccccc1O`, the IC50 in experiment [1] was 50 nM. Also, the Kb in experiment [2] was 631 nM.

In experiment [1], `O=C(O)CC/C=C\C[C@@H]1CO[C@H](c2cccc(OCCOc3cc(C(=O)O)ccc3OCCn3ccnc3)c2)O[C@@H]1c1ccccc1O` registered an IC50 of 30 nM. The Kb in [2] is 158 nM.

For the compound `O=C(O)CC/C=C\C[C@@H]1CO[C@H](c2ccccc2OCCOc2cc(C(=O)O)ccc2OCCn2ccnc2)O[C@@H]1c1ccccc1O`, in experiment [1], the IC50 was 30 nM. Moreover, in experiment [2], the Kb is 1260 nM.

In experiment [1], `CC(C)(c1ccc(/C(=C\CCCCC(=O)O)c2cccnc2)cc1)[C@H]1OC[C@@H](C/C=C\CCC(=O)O)[C@@H](c2ccccc2O)O1` returned an IC50 of 30 nM. In addition, the Kb in experiment [2] is 251 nM.

`CC(C)(CCCCCc1ccc(/C(=C\CCCCC(=O)O)c2cccnc2)cc1)[C@H]1OC[C@@H](C/C=C\CCC(=O)O)[C@@H](c2ccccc2O)O1` returned an IC50 in experiment [1] of 10 nM. Also, the Kb in [2] was 501 nM.

Take `O=C(O)CC/C=C\C[C@@H]1CO[C@H](c2ccc(OCCn3ccnc3)c(C(=O)O)c2)O[C@@H]1c1ccccc1O`: the IC50 in experiment [1] was 3800 nM. Moreover, the Kb in experiment [2] was 1260 nM.

As to `O=C(O)CC/C=C\C[C@@H]1CO[C@H](CCCCCOc2ccc(/C(=C\CCCCC(=O)O)c3cccnc3)cc2)O[C@@H]1c1ccccc1O`, the IC50 in [1] amounted to 10 nM. In addition, in [2], the Kb was 200 nM.

Turning to `O=C(O)CC/C=C\C[C@@H]1CO[C@H](c2ccccc2Cl)O[C@@H]1c1ccccc1O`, the Kb was 100 nM in experiment [3] and 3.16 nM in experiment [2]. In addition, the IC50 in experiment [1] is above 100000 nM.

In experiment [1], `O=C(O)CC/C=C\C[C@@H]1CO[C@H](c2ccc(COc3ccc(/C(=C\CCCCC(=O)O)c4cccnc4)cc3)cc2)O[C@@H]1c1ccccc1O` displayed an IC50 of 20 nM. In addition, the Kb in experiment [2] is 200 nM.

In [1], `O=C(O)CC/C=C\C[C@@H]1CO[C@H](C(CCC/C=C(/c2ccccc2)c2cccnc2)C(=O)O)O[C@@H]1c1ccccc1O` (stereo partly drawn) registered an IC50 of 40 nM. Moreover, the Kb in experiment [2] was above 10000 nM.

For `O=C(O)CC/C=C\C[C@@H]1CO[C@H](c2cccc(OCCOc3ccc(/C(=C\CCCCC(=O)O)c4cccnc4)cc3)c2)O[C@@H]1c1ccccc1O`, the IC50 in [1] is 40 nM. Further, the Kb in [2] is 794 nM.

In the case of `O=C(O)CC/C=C\C[C@@H]1CO[C@H](CCOc2ccc(/C(=C\CCCCC(=O)O)c3cccnc3)cc2)O[C@@H]1c1ccccc1O`, the midpoint of inhibition in experiment [1], the IC50, lay at 30 nM. Moreover, in experiment [2], the Kb is 200 nM.

In the case of `O=C(O)CC/C=C\C[C@@H]1CO[C@H](c2cccc(OCCCCCCOc3ccc(/C(=C\CCCCC(=O)O)c4cccnc4)cc3)c2)O[C@@H]1c1ccccc1O`, the IC50 in experiment [1] is 70 nM. The Kb in experiment [2] is 100 nM.

In [1], `O=C(O)CC/C=C\C[C@@H]1CO[C@H](c2cncc(/C(=C/CCCCC(=O)O)c3ccccc3)c2)O[C@@H]1c1ccccc1O` had an IC50 above 10000 nM. In experiment [2], the Kb was 39.8 nM.

Consider `O=C(O)CC/C=C\C[C@@H]1CO[C@H](c2ccc(COc3cccc(/C(=C\CCCCC(=O)O)c4cccnc4)c3)cc2)O[C@@H]1c1ccccc1O`, for which half-maximal inhibition in experiment [1] (IC50) required 10 nM. Also, in experiment [2], the Kb was 100 nM.

In turn, `O=C(O)CC/C=C\C[C@@H]1CO[C@H](c2ccc(/C(=C\CCCCC(=O)O)c3cccnc3)cc2)O[C@@H]1c1ccccc1O` showed an IC50 in experiment [1] of 40 nM. In addition, the Kb in experiment [2] is 100 nM.

The compound `O=C(O)CC/C=C\C[C@@H]1CO[C@H](c2cccc(COc3ccc(/C(=C\CCCCC(=O)O)c4cccnc4)cc3)c2)O[C@@H]1c1ccccc1O` yielded an IC50 in experiment [1] of 40 nM. Moreover, the Kb in experiment [2] is 200 nM.

`O=C(O)CC/C=C\C[C@@H]1CO[C@H](c2ccc(CCOc3ccc(/C(=C\CCCCC(=O)O)c4cccnc4)cc3)cc2)O[C@@H]1c1ccccc1O` came in with an IC50 in experiment [1] of 50 nM. The Kb in experiment [2] is 631 nM.

The compound `O=C(O)CC/C=C\C[C@@H]1CO[C@H](c2ccc(OCCOc3cc(C(=O)O)ccc3OCCn3ccnc3)cc2)O[C@@H]1c1ccccc1O` came in with an IC50 in experiment [1] of 60 nM. In [2], the Kb is 501 nM.

In turn, `O=C(O)CC/C=C\C[C@@H]1CO[C@H](CCCCCOc2cc(C(=O)O)ccc2OCCn2ccnc2)O[C@@H]1c1ccccc1O` showed an IC50 in experiment [1] of 60 nM. Moreover, in experiment [2], the Kb is 1260 nM.

In [1], `O=C(O)CC/C=C\C[C@@H]1CO[C@H](c2ccccc2OCCOc2ccc(/C(=C\CCCCC(=O)O)c3cccnc3)cc2)O[C@@H]1c1ccccc1O` yielded an IC50 of 30 nM. Further, the Kb in experiment [2] was 158 nM.

As for `O=C(O)CC/C=C\C[C@@H]1CO[C@H](CCCCCCCCCCOc2ccc(/C(=C\CCCCC(=O)O)c3cccnc3)cc2)O[C@@H]1c1ccccc1O`, the IC50 in experiment [1] stood at 40 nM. Besides, in experiment [2], the Kb was 2510 nM.

Consider `O=C(O)CCCC/C=C(\c1ccccc1)c1cccnc1` [(E)-ISBOGREL], for which the inhibition in vivo (usually how much of the control response was suppressed) at 1 mg/kg came to 82% in [4], 93% in [5] and 83% in experiment [6]. Also, the values for the inhibition in vivo at 10 mg/kg in experiment [7], in [8] and in experiment [9] were 97%, 87% and 97%, respectively. Further, in experiment [2], the Kb was above 10000 nM.

On to `O=C(O)c1ccc(OCCn2ccnc2)cc1` [DAZOXIBEN], for which the inhibition in vivo at 1 mg/kg was 77% in [4], 73% in experiment [5] and 91% in experiment [6]. The inhibition in vivo at 10 mg/kg worked out at 86% in experiment [7] and 87% in experiment [9]. Moreover, the Kb in experiment [2] was above 10000 nM.

For the origin of these results see ChEMBL document CHEMBL1128353, “A novel approach to dual-acting thromboxane receptor antagonist/synthase inhibitors based on the link of 1,3-dioxane-thromboxane receptor antagonists and -thromboxane synthase inhibitors” (J Med Chem, 1995).
